Where “and” joins values, the source holds several entries; their conditions need not be identical. Equal values may be shown once. Inconclusive results and toxic doses are left out. Cut-off read from the data, not from the text of the source: active = T/C of 150% or more; inactive = T/C below 125%.
Tested on: L1210 leukemia ip in BDF1 mice, survival T/C
Assay: NCI In Vivo Anticancer Drug Screen. Data for tumor model L1210 Leukemia (intraperitoneal) in B6D2F1 (BDF1) mice
Conditions: endpoint: mean survival time, higher = longer survival
Method in brief: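 Ratio derived from survival: compound-dosed mice over vehicle-dosed mice, all bearing a transplantable tumor.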

[1] = dose: 15.0 mg/kg/injection, schedule: Q01DX015 (ip), vehicle: carboxymethylcellulose (CMC)
[2] = dose: 30.0 mg/kg/injection, schedule: Q01DX015 (ip), vehicle: carboxymethylcellulose (CMC)
[3] = dose: 60.0 mg/kg/injection, schedule: Q01DX015 (ip), vehicle: carboxymethylcellulose (CMC)
[4] = dose: 50.0 mg/kg/injection, schedule: Q01DX009 (ip), vehicle: Klucel (hydroxypropylcellulose) (HPC)
[5] = dose: 100.0 mg/kg/injection, schedule: Q01DX009 (ip), vehicle: Klucel (hydroxypropylcellulose) (HPC)
[6] = dose: 100.0 mg/kg/injection, schedule: Q04DX003 (ip), vehicle: Klucel (hydroxypropylcellulose) (HPC)
[7] = dose: 200.0 mg/kg/injection, schedule: Q01DX009 (ip), vehicle: Klucel (hydroxypropylcellulose) (HPC)
[8] = dose: 200.0 mg/kg/injection, schedule: Q04DX003 (ip), vehicle: Klucel (hydroxypropylcellulose) (HPC)
[9] = dose: 400.0 mg/kg/injection, schedule: Q01DX009 (ip), vehicle: Klucel (hydroxypropylcellulose) (HPC)
[10] = dose: 100.0 mg/kg/injection, schedule: Q04DX002 (ip), vehicle: Klucel (hydroxypropylcellulose) (HPC)
[11] = dose: 200.0 mg/kg/injection, schedule: Q04DX002 (ip), vehicle: Klucel (hydroxypropylcellulose) (HPC)
[12] = dose: 400.0 mg/kg/injection, schedule: Q04DX002 (ip), vehicle: Klucel (hydroxypropylcellulose) (HPC)
[13] = dose: 100.0 mg/kg/injection, schedule: Q04DX003 (ip), vehicle: saline with Tween-80
[14] = dose: 200.0 mg/kg/injection, schedule: Q04DX003 (ip), vehicle: saline with Tween-80
[15] = dose: 400.0 mg/kg/injection, schedule: Q04DX003 (ip), vehicle: saline with Tween-80
[16] = dose: 100.0 mg/kg/injection, schedule: Q04DX003 (ip), vehicle: saline
[17] = dose: 100.0 mg/kg/injection, schedule: Q01DX001 (ip), vehicle: saline
[18] = dose: 200.0 mg/kg/injection, schedule: Q01DX001 (ip), vehicle: saline
[19] = dose: 400.0 mg/kg/injection, schedule: Q01DX001 (ip), vehicle: saline

Measured: T/C

NC(CS)(CS)C(=O)O
inactive: [1] 107 % of control | [2] 113 % of control | [3] 120 % of control

Cc1ccc(-c2cc3ccccc3[nH]2)cc1
inactive: [4] 94 % of control | [5] 89 % of control | [6] 91 % of control | [7] 86 % of control | [8] 90 % of control

CCOC(=O)C(C1=NC(C)(C)CC(C)O1)C(C[N+](=O)[O-])c1ccccc1 (stereo not drawn)
inactive: dose: 100.0 mg/kg/injection, schedule: Q01DX001 (ip), vehicle: other 97 % of control | dose: 200.0 mg/kg/injection, schedule: Q01DX001 (ip), vehicle: other 97 % of control | dose: 400.0 mg/kg/injection, schedule: Q01DX001 (ip), vehicle: other 100 % of control

NC1(C(=O)NCC(=O)O)C2CC3CC(C2)CC1C3 (stereo not drawn)
inactive: dose: 25.0 mg/kg/injection, schedule: Q01DX009 (ip), vehicle: Klucel (hydroxypropylcellulose) (HPC) 94 % of control | [4] 100 % of control | [5] 97 % of control and 99 % of control | [7] 103 % of control | [9] 102 % of control

C/C(=N/N(C)C)c1ccccc1
inactive: dose: 100.0 mg/kg/injection, schedule: Q04DX002 (ip), vehicle: saline 97 % of control | [6] 112 % of control | dose: 200.0 mg/kg/injection, schedule: Q04DX002 (ip), vehicle: saline 108 % of control | [8] 95 % of control | dose: 400.0 mg/kg/injection, schedule: Q04DX002 (ip), vehicle: saline 108 % of control | dose: 400.0 mg/kg/injection, schedule: Q04DX003 (ip), vehicle: Klucel (hydroxypropylcellulose) (HPC) 90 % of control

O=S(=O)(c1ccccc1)N1CN(S(=O)(=O)c2ccccc2)CN(S(=O)(=O)c2ccccc2)C1
inactive: [10] 93 % of control | [11] 100 % of control | [12] 96 % of control

C1CC2CC1C1CNCC21 (stereo not drawn)
inactive: dose: 5.0 mg/kg/injection, schedule: Q01DX001 (ip), vehicle: saline 105 % of control | dose: 10.0 mg/kg/injection, schedule: Q01DX001 (ip), vehicle: saline 97 % of control | dose: 20.0 mg/kg/injection, schedule: Q01DX001 (ip), vehicle: saline 105 % of control | dose: 40.0 mg/kg/injection, schedule: Q01DX001 (ip), vehicle: saline 100 % of control | dose: 50.0 mg/kg/injection, schedule: Q04DX002 (ip), vehicle: Klucel (hydroxypropylcellulose) (HPC) 97 % of control | dose: 80.0 mg/kg/injection, schedule: Q01DX001 (ip), vehicle: saline 91 % of control | [10] 97 % of control

COc1ccc(Nc2nc(N)nc(CNc3ccc(C)cc3)n2)cc1
inactive: [13] 94 % of control | [14] 92 % of control | [15] 96 % of control

CN(C)CCC=C1c2ccccc2-c2ccccc21
inactive: [1] 88 % of control | dose: 25.0 mg/kg/injection, schedule: Q01DX009 (ip), vehicle: saline with Tween-80 105 % of control | [2] 92 % of control | dose: 50.0 mg/kg/injection, schedule: Q01DX001 (ip), vehicle: carboxymethylcellulose (CMC) 93 % of control | dose: 50.0 mg/kg/injection, schedule: Q01DX009 (ip), vehicle: saline with Tween-80 96 % of control | [3] 92 % of control | dose: 100.0 mg/kg/injection, schedule: Q01DX001 (ip), vehicle: carboxymethylcellulose (CMC) 104 % of control | dose: 100.0 mg/kg/injection, schedule: Q01DX009 (ip), vehicle: saline with Tween-80 111 % of control | [16] 115 % of control | dose: 120.0 mg/kg/injection, schedule: Q01DX015 (ip), vehicle: carboxymethylcellulose (CMC) 92 % of control | dose: 200.0 mg/kg/injection, schedule: Q01DX001 (ip), vehicle: carboxymethylcellulose (CMC) 98 % of control | dose: 400.0 mg/kg/injection, schedule: Q01DX001 (ip), vehicle: carboxymethylcellulose (CMC) 101 % of control

COCCOC(C)C(/C=N/NC(N)=S)=N/NC(N)=S (stereo not drawn)
inactive: dose: 50.0 mg/kg/injection, schedule: Q01DX001 (ip), vehicle: saline 100 % of control | [17] 100 % of control | [18] 93 % of control | [19] 97 % of control

O=C1CCC(=O)N1C1c2ccccc2Oc2ccccc21
inactive: [16] 95 % of control | dose: 200.0 mg/kg/injection, schedule: Q04DX003 (ip), vehicle: saline 95 % of control | dose: 400.0 mg/kg/injection, schedule: Q04DX003 (ip), vehicle: saline 90 % of control

O=C(Cc1ccccc1)Cc1ccccc1
inactive: dose: 25.0 mg/kg/injection, schedule: Q01DX009 (ip), vehicle: water 104 % of control | dose: 50.0 mg/kg/injection, schedule: Q01DX009 (ip), vehicle: water 115 % of control | dose: 100.0 mg/kg/injection, schedule: Q01DX009 (ip), vehicle: water 104 % of control | dose: 200.0 mg/kg/injection, schedule: Q01DX009 (ip), vehicle: water 94 % of control | dose: 400.0 mg/kg/injection, schedule: Q01DX009 (ip), vehicle: water 94 % of control

O=c1c2cn[nH]c2nc2ccccn12
inactive: [17] 96 % of control | [18] 94 % of control | [19] 94 % of control

CN1C(=O)c2ccccc2C1(N)c1ccccc1 (stereo not drawn)
inactive: [5] 90 % of control | [7] 105 % of control | [9] 100 % of control

O=[N+]([O-])Nc1cc(Cl)nc(Cl)c1
inactive: dose: 75.0 mg/kg/injection, schedule: Q01DX001 (ip), vehicle: carboxymethylcellulose (CMC) 105 % of control | dose: 150.0 mg/kg/injection, schedule: Q01DX001 (ip), vehicle: carboxymethylcellulose (CMC) 97 % of control

O=C(O)C1C2C=Cc3ccccc3C21 (stereo not drawn)
inactive: [19] 90 % of control

Cc1nc2c(-c3ccccc3)nc(C)n2nc1C
inactive: dose: 100.0 mg/kg/injection, schedule: Q04DX002 (ip), vehicle: saline with Tween-80 111 % of control | dose: 200.0 mg/kg/injection, schedule: Q04DX002 (ip), vehicle: saline with Tween-80 108 % of control | dose: 400.0 mg/kg/injection, schedule: Q04DX002 (ip), vehicle: saline with Tween-80 92 % of control

CCC(C)NC(=O)Nc1ccccc1Cl (stereo not drawn)
inactive: [5] 101 % of control | [7] 95 % of control | [9] 100 % of control

CCOC(=O)C1CC(C(=O)OCC)C(=O)C1=O (stereo not drawn)
inactive: [13] 100 % of control | [14] 99 % of control | [15] 86 % of control

CC(=O)Nc1ccc(C(=O)O)cc1
inactive: [10] 88 % of control | [11] 92 % of control | [12] 111 % of control

Cc1cc(C)c(NS(=O)(=O)c2ccccc2)c(C)c1Br
inactive: dose: 75.0 mg/kg/injection, schedule: Q04DX003 (ip), vehicle: Klucel (hydroxypropylcellulose) (HPC) 95 % of control | dose: 150.0 mg/kg/injection, schedule: Q04DX003 (ip), vehicle: Klucel (hydroxypropylcellulose) (HPC) 94 % of control | dose: 300.0 mg/kg/injection, schedule: Q04DX003 (ip), vehicle: Klucel (hydroxypropylcellulose) (HPC) 94 % of control

— PubChem BioAssay AID248 (DTP/NCI, 2004)
